Measured values as given in patent US7576101B2, “Composition for and treatment of demyelinating diseases and paralysis by administration of remyelinating agents” (Elan Pharmaceuticals, Inc., priority 2003, dated 2009).
Entries after “also recorded” stand apart in the source; their conditions may differ. Like-named read-outs stand apart in the source and are kept apart here.

What was measured:
[1] = test system: guinea pig model of CP-EAE; assay: Remyelination and functional recovery in guinea pig model of CP-EAE; assay type: in vivo
From the text: The number of lesions showing myelin pallor was divided by the total number of lesions within cross sections of spinal cord taken throughout its length from each animal (FIG. 10) (for the method see Warrington et al., 2000, Proc. Nat'l Acad. Sci. USA 97: 6820-5). […] In contrast, after 20 days of N-[N-(3-pyridinesulfonyl)-L-3,3-dimethyl-4-thiaprolyl]-O-[1-methylpiperazin-4-ylcarbonyl]-L-tyrosine isopropyl ester administration, the frequency of shadow plaques in the spinal cord was increased over saline-treated animals, reaching 68%; after 30 and 40 days, the incidence was 77% and 87%, respectively (p<0.001, 2-way ANOVA with Tukey test).
The overall degree of plaque remyelination in the spinal cord was also measured. […] Total lesion area was determined for each animal by tracing all lesions within all spinal cord sections and summing the areas. Likewise, the total area of remyelination was measured by tracing regions of myelin pallor. FIGS. 10C-F plot the total lesion area against the percentage of remyelination. In saline-treated animals, lesions rarely show any evidence of repair, with means ranging between 2 and 11%, and there were no significant differences over the 40-day treatment period (FIGS. 10C-F). In contrast, after 20, 30 or 40 days of N-[N-(3-pyridinesulfonyl)-L-3,3-dimethyl-4-thiaprolyl]-O-[1-methylpiperazin-4-ylcarbonyl]-L-tyrosine isopropyl ester treatment, the majority of lesions identified show a variable degree of remyelination ranged from 2 to 100% in the majority of lesions (mean area of remyelination approximately 50%) (FIGS. 10D-5). (p<0.001, 2-way ANOVA with Tukey test). Therefore while lesions were evident in all animals throughout the 40-day treatment period, N-[N-(3-pyridinesulfonyl)-L-3,3-dimethyl-4-thiaprolyl]-O-[1-methylpiperazin-4-ylcarbonyl]-L-tyrosine isopropyl ester increased the incidence and percentage of remyelination. Furthermore, evidence of remyelination in N-[N-(3-pyridinesulfonyl)-L-3,3-dimethyl-4-thiaprolyl]-O-[1-methylpiperazin-4-ylcarbonyl]-L-tyrosine isopropyl ester-treated animals is consistent with an observed regain of motor function. The starting point for treatment was a clinical score of 2, which denotes full bilateral hind limb paralysis. […] Functional recovery was never observed in control animals.

IL-2, IL-10, MCP-1 = assay: Chronic EAE in guinea pigs: quantitative reverse transcription-PCR of spinal cord; assay type: in vivo, guinea pig; conditions: for cytokine RNA (IL-2, IL-10, MCP-1) in spinal cord after withdrawal: 10 days after removal
Procedure: Quantitative Reverse Transcription-PCR: IL-2, IL-10, MCP-1. RNA was isolated from 30 mg of frozen guinea pig spinal cord using the S.N.A.P.™ (simple nucleic acid preparation) total RNA Isolation Kit (Invitrogen) according to manufacturer's instructions, modified to include a second DNAse treatment step followed by an additional purification over the S.N.A.P. column.
Primer/probe sequences and concentrations for IL-2, IL-10, and MCP-1 are given in Table 7, as well as the standard RNA used for each gene. RT-PCR was carried out in triplicate using the ABI PRISM® 7700 Sequence Detection System. 50 μl reactions contained 10 to 800 ng of total RNA and primers and probes at the concentrations indicated above in reaction buffer consisting of 6.67% glycerol (Amresco); 5.5 mM MgCl; 300 μM dATP, dCTP, dGTP, and dUTP; 100 nM probe; 1.25 unit of AmpliTaq Gold® DNA Polymerase (Applied Biosystems); 1× TaqMan® Buffer A (TaqMan® PCR Core reagents kit, Applied Biosystems), 20 units of RNase Inhibitor (Roche); 1.25 unit of murine leukemia virus (MULV) Reverse Transcriptase (Applied Biosystems). Reverse-transcription of RNA was carried out at 48° C. for 30 min., followed by a 10 min. denaturing step at 95° C. PCR was carried out by 40 thermo-cycles consisting of 95° C. for 15 seconds followed by 60° C. for 1 minute. Each plate included a standard curve using the standard RNA listed in Table 7 and two additional control samples: 1) a positive control RNA sample used on all plates, 2) a non-template control (NTC).
The correlation coefficients of the standard curves were greater than 0.990 for all data shown. The coefficients of variation for sample triplicates were less than 0.2. Since the RNA used for the standard curve is a heterogeneous mix of RNA containing a constant but unknown amount of the target message, the numbers calculated are relative.

[2] = test system: experimental allergic encephalomyelitis in female Hartley guinea pigs; conditions: for mean clinical score day 70-80 after withdrawal (30 days treatment, 10 days off) vs continued treatment: p<0.05 Mann Whitney rank sum test; for escape from treatment: up to 40 days of treatment, compared with antibodies to α4 integrin
[3] = test system: α4 integrin on lymphocytes and monocytes; assay: Chronic EAE in guinea pigs: FACS analysis of α4 integrin on circulating lymphocytes and monocytes; assay type: in vivo, guinea pig
Procedure: FACS Analysis. On day 80 post-immunization, heparinized blood samples were collected from non-EAE animals, saline-treated animals, N-[N-(3-pyridinesulfonyl)-L-3,3-dimethyl-4-thiaprolyl]-O-[1-methylpiperazin-4-ylcarbonyl]-L-tyrosine isopropyl ester-treated animals and animals 10 days following withdrawal of N-[N-(3-pyridinesulfonyl)-L-3,3-dimethyl-4-thiaprolyl]-O-[1-methylpiperazin-4-ylcarbonyl]-L-tyrosine isopropyl ester. All samples were maintained at 4° C. for all procedures. 150 μl samples were exposed to primary antibody for 30 minutes, washed twice, and then incubated with PE-conjugated goat anti-mouse IgG Fc in the presence of 5% guinea pig serum (Beckman Coulter #PN EM055 1). Red blood cells were lysed with Becton-Dickinson lysing solution and the samples were examined on a FACScan flow cytometer (Becton Dickinson, Mountain View, Calif.) gating on different cell populations by light scatter.

[4] = listed as N-[N-(3-pyridinesulfonyl)-L-3,3-dimethyl-4-thiaprolyl]-O-[1-methylpiperzain-4-yl

Q: How did the “percentage of plaques exhibiting remyelination (frequency of shadow plaques in the spinal cord)” value ([1]; after 20 days of administration) turn out when CC(C)OC(=O)[C@H](Cc1ccc(OC(=O)N2CCN(C)CC2)cc1)NC(=O)[C@H]1N(S(=O)(=O)c2cccnc2)CSC1(C)C [N-[N-(3-pyridinesulfonyl)-L-3,3-dimethyl-4-thiaprolyl]-O-[1-methylpiperazin-4-ylcarbonyl]-L-tyrosine isopropyl ester] was run?
A: 68%

Q: And the “percentage of plaques exhibiting remyelination (incidence)” value ([1]; after 30 days of administration)?
A: 77%

Q: What about the “percentage of plaques exhibiting remyelination (incidence)” value ([1]; after 40 days of administration) of the same compound?
A: 87%

Q: And the “treated animals in which paralysis was reversed to a clinical score of 1” value ([1]; starting clinical score of 2 (full bilateral hind limb paralysis))?
A: 50%

Q: What about the “cytokine RNA (IL-2, IL-10, MCP-1) in spinal cord after withdrawal” value (IL-2, IL-10, MCP-1) of the same compound?
A: returned to levels comparable to saline-treated animals

Q: What about the “cytokine RNA (IL-2, IL-10, MCP-1) in spinal cord after withdrawal” value (IL-2, IL-10, MCP-1; [4]) of the same compound?
A: rose to levels comparable to those in saline-treated animals

Q: What about the “IL-2 RNA in lumbar spinal cord” value (IL-2, IL-10, MCP-1; during treatment, vs saline) of the same compound?
A: almost no detectable

Q: And the “expression of inflammatory cytokine RNA (IL-2, IL-10, MCP-1) in spinal cord” value (IL-2, IL-10, MCP-1; during treatment, vs saline)?
A: significant reduction; also recorded: marked decrease

Q: What about the “mean clinical score vs saline-treated animals over the treatment period” value ([2]; 30 mg/kg 2×/day s.c. from day 40 post immunization for 10-40 days, p<0.001 Mann Whitney rank sum test) of the same compound?
A: significantly lower

Q: What about the “start of clinical reversal following the initial treatment” value ([2]; 30 mg/kg twice a day s.c. from day 40 post immunization) of the same compound?
A: 2 to 3 days

Q: And the “adverse side effects during prolonged administration” value ([2]; guinea pig, 30 mg/kg 2×/day s.c. for up to 40 days, listed as N-[N-(3-pyridinesulfonyl)-L-3,3-dimethyl-4-thiaprolyl]-O-[1-methylpiperzain-4-yl, 30 mg/kg)?
A: no adverse side effects

Q: And the “mean clinical score day 70-80 after withdrawal (30 days treatment, 10 days off) vs continued treatment” value [2]?
A: significantly greater

Q: And the “mean clinical score day 70-80 after withdrawal (30 days treatment, 10 days off) vs continued treatment” value [2, 4]?
A: significantly higher

Q: And the “hind limb paresis in animals with an established clinical score of 2” value ([2]; reversion to a clinical score of 1 during treatment)?
A: reversed the paresis

Q: And the escape from treatment [2]?
A: None of the animals, however, escaped from treatment

Q: What about the escape from treatment [2, 4] of the same compound?
A: no escape from treatment

Q: What about the “percentage of α4 integrin bright lymphocytes in the circulation after removal” value ([3]; day 80, 10 days after withdrawal) of the same compound?
A: returned to saline-treated levels

Q: What about the “increase of α4 integrin expression on circulating monocytes in EAE” value ([3]; day 80 post immunization) of the same compound?
A: not affected

Q: What about the “α4 integrin bright lymphocytes in the circulation vs saline-treated animals” value ([3]; day 80 post immunization) of the same compound?
A: large increase
